{"source": "patent US9403805B2", "about": "“Antiviral compounds” (Hoffmann-La Roche Inc., priority 2012, dated 2016)", "system": "HCV GT1b replicon", "test": "HCV GT1b replicon luciferase reporter assay (2209-23 cells)", "assay_type": "cell-based", "details": "Hepatitis C virus, genotype 1a / genotype 1b; 2209-23 cells (Huh-7 with GT-1b Con1 subgenomic replicon), Renilla luciferase read 72 hours after compound addition; read-out: GT-1a - EC50 (nM) HCV, GT1b, IC50 (µM)", "text": "Determination of compounds HCV GT1b inhibitory replicon activity using the replicon luciferase reporter assay\nThe 2209-23 cell line was developed at Roche by stable transfection of the hepatoma cell line Huh-7 with a GT-1b Con1 subgenomic bicistronic replicon as previously described. Subgenomic replicon cell line was established in cured Huh7 cells, obtained from R. Bartenschlager (J Virol. 2003 March; 77 (5):3007-19) The GT-1a H77 subgenomic replicon vector pRLuc H77 1b 75 S/I, was created by replacing the nonstructural region of the GT-1b Con1 subgenomic replicon by the one of the H77 strain, except for the first 75 amino acids of the NS3 protein that are from GT-1b Conl strain. (J. Virol. 2001 77:5352-59) The GT-1a pRLuc H77 1b 75 S/I subgenomic replicon cell line was established in cured Huh7 cells, obtained from R. Bartenschlager. (J Virol. 2003 March; 77 (5):3007-19)\nAll the subgenomic replicon cell lines were cultured in Dulbecco's Modified Eagle Medium (DMEM-Glutamax™-I; Invitrogen Cat #10569-010). The medium was supplemented with 10% Fetal Bovine Serum (Invitrogen Cat #10082-147), 1% penicillin/streptomycin (Mediatech Cat #30-002-CI) and 500 μg/ml of G418 (Mediatech Cat #30-234-CI). Cells were maintained at 37° C. in a humidified 5% CO2 atmosphere.\n2209-23 cells were plated at a cell density of 5000 cells per well in 96 well plates (Becton Dickinson, Cat #35 3296). Cells were plated in 90 μl of Dulbecco's Modified Eagle Medium (DMEM-Glutamax™-I), (Invitrogen Cat #10569-010) medium was supplemented with 5% Fetal Bovine Serum (Invitrogen Cat #10082-147), 1% penicillin/streptomycin (Mediatech Cat #30-002-CI). The pRluc H77 1b 75 SA cells were plated in 96-well plate at 3000 cells/well in DMEM-Glutamax™-I containing 5% FBS and 1% penicillin/streptomycin in 90 μl final volume. Cells were allowed to equilibrate for 24 hours at 37° C. and 5% CO2 at which time compounds were added. Compounds (or medium as a control) were added 24 hours post-plating in 3 fold dilutions at a final DMSO concentration of 1% in 10 μl volume. Renilla luciferase reporter signal was read 72 hours after addition of compounds using the Renilla Luciferase Assay System (Promega, cat #E2820). EC50 values were defined as the compound concentration at which a 50% reduction in the levels of renilla luciferase reporter was observed as compared to control samples in the absence of compound and was determined by non-linear fitting of compound dose-response data. The EC50 was approximated if maximum percentage inhibition was less than 90% and more than 70%."}
{"compound": "COC(=O)[C@@H]1C[C@H](NC(=O)c2ccc3ccccc3c2O)CN1CCC(C)(C)C", "note": "[Compound I-2, (2S,4S)-1-(3,3-Dimethyl-butyl)-4-[(1-hydroxy-naphthalene-2-carbonyl)-amino]-pyrrolidine-2-carboxylic acid methyl ester]", "values": [{"measurement": "IC50", "value": 79, "unit": "nM"}]}
{"compound": "CCCNC(=O)[C@@H]1C[C@H](NC(=O)c2ccc3ccccc3c2O)CN1CC1CCCCC1", "note": "[Compound I-16, (2S,4S)-1-Cyclohexylmethyl-4-[(1-hydroxy-naphthalene-2-carbonyl)-amino]-pyrrolidine-2-carboxylic acid propylamide]", "values": [{"measurement": "IC50", "value": 205, "unit": "nM"}]}
{"compound": "O=C(N[C@H]1C[C@@H](C(=O)N2CCCC2)N(CC2CCCCC2)C1)c1ccc2ccccc2c1O", "note": "[Compound I-26, 1-Hydroxy-naphthalene-2-carboxylic acid [(3S,5S)-1-cyclohexylmethyl-5-(pyrrolidine-1-carbonyl)-pyrrolidin-3-yl]-amide]", "values": [{"measurement": "IC50", "value": 640, "unit": "nM"}]}
{"compound": "COC(=O)[C@@H]1C[C@@H](NC(=O)c2ccc3ccccc3c2O)CN1CC1CCCCC1", "note": "[Compound I-28, (2S,4R)-1-Cyclohexylmethyl-4-[(1-hydroxy-naphthalene-2-carbonyl)-amino]-pyrrolidine-2-carboxylic acid methyl ester]", "values": [{"measurement": "IC50", "value": 793, "unit": "nM"}]}
{"compound": "CCOC(=O)[C@@H]1C[C@H](NC(=O)c2ccc3ccccc3c2O)CCN1CC1CCCCC1", "note": "[Compound I-3, (2S,4R)-1-Cyclohexylmethyl-4-[(1-hydroxy-naphthalene-2-carbonyl)-amino]-piperidine-2-carboxylic acid ethyl ester]", "values": [{"measurement": "IC50", "value": 51, "unit": "nM"}]}
{"compound": "O=C(N[C@H]1C[C@@H](C(=O)NCc2ccccc2)N(CC2CCCCC2)C1)c1ccc2ccccc2c1O", "note": "[Compound I-13, (2S,4S)-1-Cyclohexylmethyl-4-[(1-hydroxy-naphthalene-2-carbonyl)-amino]-pyrrolidine-2-carboxylic acid benzylamide]", "values": [{"measurement": "IC50", "value": 163, "unit": "nM"}]}
{"compound": "CCOC(=O)[C@@H]1C[C@@H](NC(=O)c2ccc3ccccc3c2O)CN1Cc1ccccc1", "note": "[Compound I-27, (2S,4R)-1-Benzyl-4-[(1-hydroxy-naphthalene-2-carbonyl)-amino]-pyrrolidine-2-carboxylic acid ethyl ester]", "values": [{"measurement": "IC50", "value": 659, "unit": "nM"}]}
{"compound": "COC(=O)[C@H]1C[C@H](NC(=O)c2ccc3ccccc3c2O)CN1CC1CCCCC1", "note": "[Compound I-20, (2R,4S)-1-Cyclohexylmethyl-4-[(1-hydroxy-naphthalene-2-carbonyl)-amino]-pyrrolidine-2-carboxylic acid methyl ester]", "values": [{"measurement": "IC50", "value": 233, "unit": "nM"}]}
{"compound": "CCOC(=O)[C@@H]1C[C@H](NC(=O)c2ccc3ccccc3c2O)CN1CC1CCC1", "note": "[Compound I-17, (2S,4S)-1-Cyclobutylmethyl-4-[(1-hydroxy-naphthalene-2-carbonyl)-amino]-pyrrolidine-2-carboxylic acid ethyl ester]", "values": [{"measurement": "IC50", "value": 219, "unit": "nM"}]}
{"compound": "CC(C)(C)OC(=O)[C@@H]1C[C@H](NC(=O)c2ccc3ccccc3c2O)CN1CC1CCCCC1", "note": "[Compound I-1, (2S,4S)-1-Cyclohexylmethyl-4-[(1-hydroxy-naphthalene-2-carbonyl)-amino]-pyrrolidine-2-carboxylic acid tert-butyl ester]", "values": [{"measurement": "IC50", "value": 47, "unit": "nM"}]}
{"compound": "CC(C)NC(=O)[C@@H]1C[C@H](NC(=O)c2ccc3ccccc3c2O)CN1CC1CCCCC1", "note": "[Compound I-15, (2S,4S)-1-Cyclohexylmethyl-4-[(1-hydroxy-naphthalene-2-carbonyl)-amino]-pyrrolidine-2-carboxylic acid isopropylamide]", "values": [{"measurement": "IC50", "value": 187, "unit": "nM"}]}
{"compound": "CCOC(=O)[C@@H]1C[C@H](NC(=O)c2ccc3ccccc3c2O)CN1CC(C)C", "note": "[Compound I-22, (2S,4S)-4-[(1-Hydroxy-naphthalene-2-carbonyl)-amino]-1-isobutyl-pyrrolidine-2-carboxylic acid ethyl ester]", "values": [{"measurement": "IC50", "value": 299, "unit": "nM"}]}
{"compound": "CCNC(=O)[C@@H]1C[C@H](NC(=O)c2ccc3ccccc3c2O)CCN1CC1CCCCC1", "note": "[Compound I-19, (2S,4R)-1-Cyclohexylmethyl-4-[(1-hydroxy-naphthalene-2-carbonyl)-amino]-piperidine-2-carboxylic acid ethylamide]", "values": [{"measurement": "IC50", "value": 223, "unit": "nM"}]}
{"compound": "O=C(N[C@H]1C[C@@H](C(=O)N2CCC2)N(CC2CCCCC2)C1)c1ccc2ccccc2c1O", "note": "[Compound I-29, 1-Hydroxy-naphthalene-2-carboxylic acid [(3S,5S)-5-(azetidine-1-carbonyl)-1-cyclohexylmethyl-pyrrolidin-3-yl]-amide]", "values": [{"measurement": "IC50", "value": 826, "unit": "nM"}]}
{"compound": "CCOC(=O)[C@@H]1C[C@H](NC(=O)c2ccc3ccccc3c2O)CN1CC1CCCC1", "note": "[Compound I-12, (2S,4S)-1-Cyclopentylmethyl-4-[(1-hydroxy-naphthalene-2-carbonyl)-amino]-pyrrolidine-2-carboxylic acid ethyl ester]", "values": [{"measurement": "IC50", "value": 129, "unit": "nM"}]}
{"compound": "COC(=O)[C@@H]1C[C@H](NC(=O)c2ccc3ccccc3c2N)CN1CC1CCCCC1", "note": "[Compound I-23, (2S,4S)-4-[(1-Amino-naphthalene-2-carbonyl)-amino]-1-cyclohexylmethyl-pyrrolidine-2-carboxylic acid methyl ester]", "values": [{"measurement": "IC50", "value": 336, "unit": "nM"}]}
{"compound": "Cc1cnc([C@@H]2C[C@H](NC(=O)c3ccc4ccccc4c3O)CN2CC2CCCCC2)o1", "note": "[Compound I-7, 1-Hydroxy-naphthalene-2-carboxylic acid [(3S,5S)-1-cyclohexylmethyl-5-(5-methyl-oxazol-2-yl)-pyrrolidin-3-yl]-amide]", "values": [{"measurement": "IC50", "value": 70, "unit": "nM"}]}
{"compound": "COC(=O)[C@@H]1C[C@H](NC(=O)c2ccc3ccccc3c2O)CN1CC1CCCCC1", "note": "[Compound I-10, (2S,4S)-1-Cyclohexylmethyl-4-[(1-hydroxy-naphthalene-2-carbonyl)-amino]-pyrrolidine-2-carboxylic acid methyl ester]", "values": [{"measurement": "IC50", "value": 120, "unit": "nM"}]}
{"compound": "COC(=O)[C@]1(C)C[C@H](NC(=O)c2ccc3ccccc3c2O)CN1CC1CCCCC1", "note": "[Compound I-21, (2S,4S)-1-Cyclohexylmethyl-4-[(1-hydroxy-naphthalene-2-carbonyl)-amino]-2-methyl-pyrrolidine-2-carboxylic acid methyl ester]", "values": [{"measurement": "IC50", "value": 247, "unit": "nM"}]}
{"compound": "CCNC(=O)[C@@H]1C[C@H](NC(=O)c2ccc3ccccc3c2O)CN1CC1CCCCC1", "note": "[Compound I-18, (2S,4S)-1-Cyclohexylmethyl-4-[(1-hydroxy-naphthalene-2-carbonyl)-amino]-pyrrolidine-2-carboxylic acid ethylamide]", "values": [{"measurement": "IC50", "value": 221, "unit": "nM"}]}
{"compound": "O=C(N[C@H]1C[C@@H](c2ncc(-c3ccccc3)o2)N(CC2CCCCC2)C1)c1ccc2ccccc2c1O", "note": "[Compound I-8, 1-Hydroxy-naphthalene-2-carboxylic acid [(3S,5S)-1-cyclohexylmethyl-5-(5-phenyl-oxazol-2-yl)-pyrrolidin-3-yl]-amide]", "values": [{"measurement": "IC50", "value": 86, "unit": "nM"}]}
{"compound": "O=C(N[C@H]1C[C@@H](c2ncco2)N(CC2CCCCC2)C1)c1ccc2ccccc2c1O", "note": "[Compound I-9, 1-Hydroxy-naphthalene-2-carboxylic acid ((3S,5S)-1-cyclohexylmethyl-5-oxazol-2-yl-pyrrolidin-3-yl)-amide]", "values": [{"measurement": "IC50", "value": 114, "unit": "nM"}]}
{"compound": "NC(=O)[C@@H]1C[C@H](NC(=O)c2ccc3ccccc3c2O)CN1CC1CCCCC1", "note": "[Compound I-25, (2S,4S)-1-Cyclohexylmethyl-4-[(1-hydroxy-naphthalene-2-carbonyl)-amino]-pyrrolidine-2-carboxylic acid amide]", "values": [{"measurement": "IC50", "value": 509, "unit": "nM"}]}
{"compound": "O=C(N[C@H]1C[C@@H](c2nc3ccccc3o2)N(CC2CCCCC2)C1)c1ccc2ccccc2c1O", "note": "[Compound I-5, 1-Hydroxy-naphthalene-2-carboxylic acid ((3S,5S)-5-benzooxazol-2-yl-1-cyclohexylmethyl-pyrrolidin-3-yl)-amide]", "values": [{"measurement": "IC50", "value": 52, "unit": "nM"}]}
{"compound": "CCOC(=O)[C@@H]1C[C@H](NC(=O)c2ccc3cccnc3c2O)CN1CC1CCCCC1", "note": "[Compound I-24, (2S,4S)-1-Cyclohexylmethyl-4-[(8-hydroxy-quinoline-7-carbonyl)-amino]-pyrrolidine-2-carboxylic acid ethyl ester]", "values": [{"measurement": "IC50", "value": 367, "unit": "nM"}]}
{"compound": "CCOC(=O)[C@@H]1C[C@H](NC(=O)c2ccc3ccccc3c2O)CN1C(=O)C1CCCCC1", "note": "[Compound I-14, (2S,4S)-1-Cyclohexanecarbonyl-4-[(1-hydroxy-naphthalene-2-carbonyl)-amino]-pyrrolidine-2-carboxylic acid ethyl ester]", "values": [{"measurement": "IC50", "value": 184, "unit": "nM"}]}
